In PMC8708875 (Pharmaceutics, 2021):
Like-named read-outs stand apart in the source and are kept apart here.

Key:
Glut4 = test: GLUT4 translocation assay (subcellular fractions, Western blot); type: cell-based, mouse
Method: C2C12 differentiated myotubes were starved with free-FBS low glucose DMEM for 3 h, and then treated with saline or 5 µM of BMS-536924 insulin receptor inhibitor (Sigma-Aldrich, Sao Paulo, Brazil) for 30 min. Next, C2C12 were incubated in the presence of either vehicle, insulin (100 nM) or Ric4 (100 µM) for 30 min. As described by Tortorella and Pilch, 2002, cells were washed three times with PBS, and homogenized with 40 strokes of a glass tissue grinder in buffer containing sucrose 255 mM, disodium 4 mM, EDTA 20 mM, 4-(2-hydroxyethyl)-1-piperazineethanesulfonic acid (HEPES) 10 mM, pH 7.4, leupeptin 10 µM, pepstatin 1µM, aprotinin 1 µM, phenylmethylsulfonyl fluoride (PMSF) 1 mM, and benzamidine 5 mM (HES buffer). The homogenate was centrifuged at 19,000× g for 20 min. The pellet was saved (P1). The supernatant was recovered and centrifuged at 40,000× g for 20 min. The pellet (MF1) was resuspended in HES buffer. The supernatant was further centrifuged at 180,000× g for 1.5 h and the pellet (MF2) was resuspended in HES buffer. Both pellets MF1 and MF2, referred to as microsomal fraction (MF) correspond to high- and low-density microsomes. The pellet from the first centrifugation (P1) was resuspended in HES buffer, layered onto a 1.12 M sucrose cushion in 20 mM HEPES and 1 mM disodium EDTA, and centrifuged at 100,000× g for 1 h. The pellet (nuclear/endoplasmic reticulum fraction -N/ER) was resuspended in a buffer containing 20 mM Tris (pH 7.4), 50 mM NaCl, 2% Nonidet P-40, 0.5% deoxycholate, 0.2% SDS, and the protease inhibitor cocktail (#P8340; Sigma Aldrich, SP, Brazil). The interphase of the sucrose cushion was collected and pelleted at 40,000× g for 20 min. This PM-containing pellet (PM) was resuspended in PBS plus protease inhibitors. All centrifugations were performed at 4 °C with a Beckman Coulter Ultracentrifuge. Total protein of all samples was determined using Pierce™ BCA Protein Assay Kit (ThermoFisher, Sao Paulo, Brazil). Proteins were submitted to Western blot analysis as described above, using as primary antibody anti-Glut4 (1:1000, Cell Signaling, Boston, MA, USA).
Figure 4 Glucose uptake and GLUT4 translocation induced by Ric4 in C2C12 cells. C2C12 cells were previously incubated in serum-free and glucose-free DMEM medium, then incubated with HEPES buffer for 30 min and then incubated for a further 30 min in glucose-uptake buffer containing vehicle, Ric4 (100 µM), or insulin (100 nM) in the presence of ^3H-glucose (1 µCi/mL) or 2-NBDG (80 µM). After incubations cells were lysed with 50 μL of 0.1 N NaOH and fluorescence or radiation of aliquots from the lysate were measured (A). Epididymal adipose tissue explants (20–25 mg) were incubated in Krebs–Ringer bicarbonate buffer containing glucose 5.5 mM and 1 μCi/mL of ^3H-deoxyglucose supplemented with 2% fatty acid-free for 30 min at 37 °C in the presence or absence of insulin (100 nM) or Ric4 (100 µM). The explants were processed to evaluate the uptake of ^3H-deoxyglucose (B). Myotubes were previously incubated in serum-free and glucose-free DMEM medium and then treated with control vehicle PBS or Ric4 (100 µM) for 30 min. Proteins from subcellular fractions: N/ER (C), microsomal (D), plasma membrane (E), were isolated and the expression Glut4 was analyzed by Western blot. Images were quantified using ImageJ 1.49 software. The statistical comparisons were performed using analysis of variance (ANOVA), followed by ad-hoc Tukey’s test using GraphPad Prism software * p < 0.05; # p < 0.05; **** p < 0.0001.

[1] = test system: differentiated C2C12 myotubes; test: qPCR gene expression in differentiated C2C12 myotubes; type: cell-based, mouse; settings: Ric peptides 100 µM, insulin positive control, qPCR normalised to GAPDH, control = 1, mean ± SEM
[2] = C2C12 myotubes, Ric4 100 µM, insulin 100 nM, 30 min, Western blot

Substance: LASVSTVLTSKYR [Ric4, intracellular peptide derived from hemoglobin alpha subunit, last 13 C-terminal amino acids]
- Glut4 presence in microsomal membranes (Glut4): decreasing
- translocation of Glut4 to plasma membrane (Glut4; [2]): induced translocation of Glut4 to plasma membrane
- translocation of Glut4 to rough endoplasmic reticulum (RER) membranes (N/ER fraction) (Glut4; [2]): increased
- relative expression of Myosin, light chain 1 (MYL1) [1]: 3.58 ± 1.07

Substance: Insulin
- Glut4 presence in microsomal membranes (Glut4; [2]): not observed
- translocation of Glut4 to plasma membrane (Glut4; [2]): induced translocation of Glut4 to plasma membrane
- translocation of Glut4 to rough endoplasmic reticulum (RER) membranes (N/ER fraction) (Glut4; [2]): not observed
- relative expression of Myosin, light chain 1 (MYL1) [1]: 6.18 ± 1.07
